Consider two compounds from patent US5981255A, “Alkaline protease, process for the production thereof, use thereof, and microorganism producing the same” (priority 1995, dated 1999).

For the test, the system named is alkaline protease API-26 produced by Bacillus sp. SD 114 (FERM BP-5736). The test is classed as biochemical.

Where two headings read alike, the source gives them in different places.

Protocol: Add 50 μl of the enzyme solution diluted appropriately to 500 μl of 50 mM Atkins-Pantin borate buffer, pH10, and pre-incubate at 30° C. for 3 to 5 minutes. To this solution, add 500 μl of 2% Hammarsten*s casein solution, pH 10, and after 10 minutes, stop the reaction by adding 2 ml of trichloroacetic acid (TCA) solution (0.032 M TCA solution adjusted to pH 4 with acetate buffer). Leave at 30° C. for more than 10 minutes, and filter with paper filter No.2 (Toyo Roshi). To 1 ml of filtrate add 5 ml of 0.4 M sodium carbonate and 1 ml of phenol reagent diluted 6-fold with water. Leave at 30° C. for 20 minutes for coloring, and then determine the absorbance at 660 nm. The unit of the protease activity is described by the katal. One katal is defined as the activity that the protease reacting with casein as a substrate at pH 10 and at 30° C. produces a degradation product with the absorbance at 660 nm equivalent to one mole of tyrosine.
Effects of various inhibitors against this enzyme were investigated according to the following conditions and procedure:
A solution containing this enzyme at about 20 nkatal/ml in 50 mM borate buffer, pH 10 was prepared. To this solution, EDTA, p-mercuribenzoic acid (PCMV) or phenylmethanesulfonyl fluoride (PMSF) was added at a concentration shown in Table 4. After incubating at 30° C. for 30 minutes, the enzyme activity was determined.

As to `O=C(O)c1cc[c]([Hg][OH])cc1` [PCMV, p-mercuribenzoic acid], for the setting “PCMV 1 mM, 50 mM borate buffer pH 10, incubated at 30° C. for 30 minutes, enzyme about 20 nkatal/ml”, the “Activity (relative activity, enzyme with no inhibitor = 100%)” value is recorded as 100%.

Take `O=C(O)CN(CCN(CC(=O)O)CC(=O)O)CC(=O)O` [EDTA, ethylenediaminetetraacetic acid]: the “Activity (relative activity, enzyme with no inhibitor = 100%)” value (pH 10) was 99.
